Results taken from PubChem BioAssay AID1963967 (Molecular Pharmacology Branch, DTP, NCI, 2024).

Tested on: 855422-203-R-J1-PDC spheroids with HUVEC/MSC, viability
Assay: Anticancer human tumor 855422-203-R-J1-PDC patient-derived bladder carcinoma cell line growth inhibition [PI3K]
Settings: for IC50: curve of first compound; for viability, T/C: stronger effect = lower value; active means viability on the fitted dose curve at most 10% of control; inactive means the rest
How it was run: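 Agents were dosed from a top concentration near clinical Cmax (otherwise 10 microM) in half-log decrements, alone or combined with PI3K inhibitors. The spheroids contain tumor cells plus endothelial (HUVEC) and MSC stroma; viability is measured.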

[1] = second compound 0.00316 µM, first compound 0.000316 µM
[2] = second compound 0.00316 µM, first compound 0.001 µM
[3] = second compound 0.00316 µM, first compound 0.00316 µM
[4] = second compound 0.00316 µM, first compound 0.01 µM
[5] = second compound 0.00316 µM, first compound 0.0316 µM
[6] = second compound 0.00316 µM, first compound 0.1 µM
[7] = second compound 0.01 µM, first compound 0.000316 µM
[8] = second compound 0.01 µM, first compound 0.001 µM
[9] = second compound 0.01 µM, first compound 0.00316 µM
[10] = second compound 0.01 µM, first compound 0.01 µM
[11] = second compound 0.01 µM, first compound 0.0316 µM
[12] = second compound 0.01 µM, first compound 0.1 µM
[13] = second compound 0.0316 µM, first compound 0.000316 µM
[14] = second compound 0.0316 µM, first compound 0.001 µM
[15] = second compound 0.0316 µM, first compound 0.00316 µM
[16] = second compound 0.0316 µM, first compound 0.01 µM
[17] = second compound 0.0316 µM, first compound 0.0316 µM
[18] = second compound 0.0316 µM, first compound 0.1 µM
[19] = second compound 0.1 µM, first compound 0.000316 µM
[20] = second compound 0.1 µM, first compound 0.001 µM
[21] = second compound 0.1 µM, first compound 0.00316 µM
[22] = second compound 0.1 µM, first compound 0.01 µM
[23] = second compound 0.1 µM, first compound 0.0316 µM
[24] = second compound 0.1 µM, first compound 0.1 µM
[25] = second compound 0.316 µM, first compound 0.000316 µM
[26] = second compound 0.316 µM, first compound 0.001 µM
[27] = second compound 0.316 µM, first compound 0.00316 µM
[28] = second compound 0.316 µM, first compound 0.01 µM
[29] = second compound 0.316 µM, first compound 0.0316 µM
[30] = second compound 0.316 µM, first compound 0.1 µM
[31] = second compound 1 µM, first compound 0.000316 µM
[32] = second compound 1 µM, first compound 0.001 µM
[33] = second compound 1 µM, first compound 0.00316 µM
[34] = second compound 1 µM, first compound 0.01 µM
[35] = second compound 1 µM, first compound 0.0316 µM
[36] = second compound 1 µM, first compound 0.1 µM
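Further: agents incubated with spheroids for one week before read-out.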
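Wherever viability, T/C is given: 100% = DMSO vehicle-treated control wells.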

CC(=O)c1c(C)c2cnc(Nc3ccc(N4CCNCC4)cn3)nc2n(C2CCCC2)c1=O + COc1c(OCCCN2CCOCC2)ccc2c3n(c(=NC(=O)c4cnc(N)nc4)nc12)CCN3
active: viability, T/C [26] 7.97% | viability, T/C [27] 9.28% | viability, T/C [28] 8.98% | viability, T/C [29] 6.22% | viability, T/C [30] 5.08% | viability, T/C [31] 3.62% | viability, T/C [32] 4.81% | viability, T/C [33] 3.28% | viability, T/C [34] 3.47% | viability, T/C [35] 4.56% | viability, T/C [36] 3.64%
< 0.316 nM: IC50 (second compound 0.1 µM) | IC50 (second compound 0.316 µM) | IC50 (second compound 1 µM)
> 100 nM: IC50 (second compound 0.00316 µM) | IC50 (second compound 0.01 µM)
18.9 nM: IC50 (second compound 0.0316 µM)
inactive: viability, T/C [1] 91.7% | viability, T/C [2] 101% | viability, T/C [3] 95.2% | viability, T/C [4] 98.3% | viability, T/C [5] 90.5% | viability, T/C [6] 73.5% | viability, T/C [7] 83.1% | viability, T/C [8] 88.4% | viability, T/C [9] 88.2% | viability, T/C [10] 84.7% | viability, T/C [11] 86.6% | viability, T/C [12] 56.5% | viability, T/C [13] 67.9% | viability, T/C [14] 63.5% | viability, T/C [15] 58.4% | viability, T/C [16] 55.2% | viability, T/C [17] 47.6% | viability, T/C [18] 26.9% | viability, T/C [19] 26.8% | viability, T/C [20] 27.5% | viability, T/C [21] 22.6% | viability, T/C [22] 25.4% | viability, T/C [23] 20% | viability, T/C [24] 12.1% | viability, T/C [25] 10.4%

CC(C)n1nc(-c2ccc3oc(N)nc3c2)c2c(N)ncnc21 + COc1c(OCCCN2CCOCC2)ccc2c3n(c(=NC(=O)c4cnc(N)nc4)nc12)CCN3
10.6 nM: IC50 (second compound 0.0316 µM)
inactive: viability, T/C [1] 106% | viability, T/C [2] 88.3% | viability, T/C [3] 94.4% | viability, T/C [4] 81.5% | viability, T/C [5] 72.6% | viability, T/C [6] 14.6% | viability, T/C [7] 89.6% | viability, T/C [8] 87.7% | viability, T/C [9] 90.3% | viability, T/C [10] 86.5% | viability, T/C [11] 49.7% | viability, T/C [12] 10.4% | viability, T/C [13] 72.1% | viability, T/C [14] 68.8% | viability, T/C [15] 56.8% | viability, T/C [16] 53% | viability, T/C [17] 34.5% | viability, T/C [19] 33.4% | viability, T/C [20] 30.8% | viability, T/C [21] 33.1% | viability, T/C [22] 29.3% | viability, T/C [23] 19.1% | viability, T/C [25] 11.2% | viability, T/C [26] 10.2%
31.3 nM: IC50 (second compound 0.01 µM)
47 nM: IC50 (second compound 0.00316 µM)
active: viability, T/C [18] 7.16% | viability, T/C [24] 4.35% | viability, T/C [27] 9.76% | viability, T/C [28] 9.27% | viability, T/C [29] 5.64% | viability, T/C [30] 2.5% | viability, T/C [31] 5.23% | viability, T/C [32] 5.41% | viability, T/C [33] 4.21% | viability, T/C [34] 4.46% | viability, T/C [35] 3.47% | viability, T/C [36] 1.3%
< 0.316 nM: IC50 (second compound 0.1 µM) | IC50 (second compound 0.316 µM) | IC50 (second compound 1 µM)

CCCS(=O)(=O)Nc1ccc(F)c(C(=O)c2c[nH]c3ncc(-c4ccc(Cl)cc4)cc23)c1F + COc1c(OCCCN2CCOCC2)ccc2c3n(c(=NC(=O)c4cnc(N)nc4)nc12)CCN3
< 31.6 nM: IC50 (second compound 0.1 µM) | IC50 (second compound 0.316 µM) | IC50 (second compound 1 µM)
inactive: viability, T/C [5] 97.6% | viability, T/C [6] 83.8% | viability, T/C (second compound 0.00316 µM, first compound 0.316 µM) 87.2% | viability, T/C (second compound 0.00316 µM, first compound 1 µM) 82.5% | viability, T/C (second compound 0.00316 µM, first compound 3.16 µM) 71.3% | viability, T/C [11] 105% | viability, T/C [12] 89.5% | viability, T/C (second compound 0.01 µM, first compound 0.316 µM) 83% | viability, T/C (second compound 0.01 µM, first compound 1 µM) 90.6% | viability, T/C (second compound 0.01 µM, first compound 3.16 µM) 78.9% | viability, T/C [17] 68.2% | viability, T/C [18] 75.1% | viability, T/C (second compound 0.0316 µM, first compound 0.316 µM) 78.6% | viability, T/C (second compound 0.0316 µM, first compound 1 µM) 67.1% | viability, T/C (second compound 0.0316 µM, first compound 3.16 µM) 49.7% | viability, T/C [23] 34.5% | viability, T/C [24] 35.3% | viability, T/C (second compound 0.1 µM, first compound 0.316 µM) 34.1% | viability, T/C (second compound 0.1 µM, first compound 1 µM) 32.4% | viability, T/C (second compound 0.1 µM, first compound 3.16 µM) 23.9% | viability, T/C [29] 11.9% | viability, T/C [30] 11.4% | viability, T/C (second compound 0.316 µM, first compound 0.316 µM) 11.9%
3060 nM: IC50 (second compound 0.0316 µM)
active: viability, T/C (second compound 0.00316 µM, first compound 10 µM) 0.07% | viability, T/C (second compound 0.01 µM, first compound 10 µM) 0.31% | viability, T/C (second compound 0.0316 µM, first compound 10 µM) 0.93% | viability, T/C (second compound 0.1 µM, first compound 10 µM) 1.58% | viability, T/C (second compound 0.316 µM, first compound 1 µM) 11.8% | viability, T/C (second compound 0.316 µM, first compound 3.16 µM) 8.59% | viability, T/C (second compound 0.316 µM, first compound 10 µM) 0.86% | viability, T/C [35] 4.83% | viability, T/C [36] 3.64% | viability, T/C (second compound 1 µM, first compound 0.316 µM) 4.81% | viability, T/C (second compound 1 µM, first compound 1 µM) 6.51% | viability, T/C (second compound 1 µM, first compound 3.16 µM) 3.75% | viability, T/C (second compound 1 µM, first compound 10 µM) 2%
4390 nM: IC50 (second compound 0.00316 µM)
4840 nM: IC50 (second compound 0.01 µM)
